Four molecules from patent US20250034216A1, “STEREOSELECTIVE COVALENT LIGANDS FOR ONCOGENIC AND IMMUNOLOGICAL PROTEINS” (The Scripps Research Institute, priority 2021, published 2025) can be followed below.

Common to all, as to experiment: IA-DTB cysteine engagement
Holding throughout (format): binding
Holding throughout (conditions): 22Rv1 cells, 20 μM probe, 1 h, relative to DMSO

Assay [1] deals with T1, BCKDK_C111 (Homo sapiens, UniProt O14874).
T1 construct: endogenous in cells; host or cells: 22Rv1
The essentials: (§1)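 Read-out is TMT-based cysteine engagement, expressed as each reporter ion intensity divided by the average of the DMSO channels. Before that, probe-treated cell lysates were capped with IA-DTB, digested, enriched on streptavidin and TMT-tagged. PSMs with DMSO summed intensity <10,000 or DMSO CV >0.5 were excluded.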

In assay [2] the target is T2, DCTN4_C258 (Homo sapiens, UniProt Q9UJW0).
T2 construct: endogenous in cells; host or cells: 22Rv1
T2 sequence (Q9UJW0 whole entry): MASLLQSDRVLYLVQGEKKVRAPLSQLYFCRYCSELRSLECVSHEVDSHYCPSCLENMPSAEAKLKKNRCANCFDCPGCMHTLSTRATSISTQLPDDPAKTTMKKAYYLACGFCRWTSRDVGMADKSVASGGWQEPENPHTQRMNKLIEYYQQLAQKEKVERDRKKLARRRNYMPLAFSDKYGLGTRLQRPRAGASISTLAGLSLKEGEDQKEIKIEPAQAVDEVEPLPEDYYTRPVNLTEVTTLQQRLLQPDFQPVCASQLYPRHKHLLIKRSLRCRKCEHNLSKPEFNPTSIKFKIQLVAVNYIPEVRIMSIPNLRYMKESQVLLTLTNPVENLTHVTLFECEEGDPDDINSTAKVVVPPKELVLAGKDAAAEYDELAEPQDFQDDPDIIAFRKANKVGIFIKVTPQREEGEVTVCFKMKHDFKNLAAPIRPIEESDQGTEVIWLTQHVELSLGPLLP
The essentials:
as §1

Assay [3] deals with T3, EPHX4_C287 (Homo sapiens, UniProt Q8IUS5).
T3 construct: endogenous in cells; host or cells: 22Rv1
T3 sequence (Q8IUS5 1-362): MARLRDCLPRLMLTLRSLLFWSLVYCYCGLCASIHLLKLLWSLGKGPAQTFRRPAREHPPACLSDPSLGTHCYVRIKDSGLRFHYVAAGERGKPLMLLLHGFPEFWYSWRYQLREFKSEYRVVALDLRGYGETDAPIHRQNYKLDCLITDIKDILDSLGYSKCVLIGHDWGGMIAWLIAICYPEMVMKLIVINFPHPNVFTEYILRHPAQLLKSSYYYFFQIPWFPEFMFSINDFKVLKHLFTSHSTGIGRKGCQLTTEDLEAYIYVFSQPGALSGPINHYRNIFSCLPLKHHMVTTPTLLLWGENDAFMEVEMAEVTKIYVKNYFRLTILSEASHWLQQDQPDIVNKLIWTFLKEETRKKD
The gist of the method:
as §1

The target in assay [4] is T4, KRTCAP3_C197 (Homo sapiens, UniProt Q53RY4).
T4 construct: endogenous in cells; host or cells: 22Rv1
T4 sequence (Q53RY4 1-240): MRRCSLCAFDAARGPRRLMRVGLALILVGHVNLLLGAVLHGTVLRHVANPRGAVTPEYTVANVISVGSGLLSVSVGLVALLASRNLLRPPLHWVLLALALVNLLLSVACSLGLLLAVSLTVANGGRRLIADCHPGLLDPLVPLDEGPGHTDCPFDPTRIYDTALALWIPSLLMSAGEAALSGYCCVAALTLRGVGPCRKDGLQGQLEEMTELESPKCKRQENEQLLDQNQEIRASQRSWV
The gist of the method: as §1

Assay [5] concerns the target T5, SLC25A16_C311 (Homo sapiens, UniProt P16260).
T5 construct: endogenous in cells; host or cells: 22Rv1
T5 sequence (P16260 1-332): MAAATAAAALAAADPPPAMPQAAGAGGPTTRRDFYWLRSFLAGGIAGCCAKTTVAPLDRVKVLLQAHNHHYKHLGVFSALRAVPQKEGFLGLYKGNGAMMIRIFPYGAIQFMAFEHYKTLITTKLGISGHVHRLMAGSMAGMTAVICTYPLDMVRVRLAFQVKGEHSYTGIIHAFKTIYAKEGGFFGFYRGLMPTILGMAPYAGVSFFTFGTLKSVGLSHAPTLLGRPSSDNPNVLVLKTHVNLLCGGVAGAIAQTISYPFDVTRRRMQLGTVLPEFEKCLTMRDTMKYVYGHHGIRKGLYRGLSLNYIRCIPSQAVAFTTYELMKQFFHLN
The essentials:
as §1

Assay [6] addresses T6, TANC1_C800 (Homo sapiens, UniProt Q9C0D5).
T6 construct: endogenous in cells; host or cells: 22Rv1
The essentials:
as §1

T6 sequence (Q9C0D5 whole entry): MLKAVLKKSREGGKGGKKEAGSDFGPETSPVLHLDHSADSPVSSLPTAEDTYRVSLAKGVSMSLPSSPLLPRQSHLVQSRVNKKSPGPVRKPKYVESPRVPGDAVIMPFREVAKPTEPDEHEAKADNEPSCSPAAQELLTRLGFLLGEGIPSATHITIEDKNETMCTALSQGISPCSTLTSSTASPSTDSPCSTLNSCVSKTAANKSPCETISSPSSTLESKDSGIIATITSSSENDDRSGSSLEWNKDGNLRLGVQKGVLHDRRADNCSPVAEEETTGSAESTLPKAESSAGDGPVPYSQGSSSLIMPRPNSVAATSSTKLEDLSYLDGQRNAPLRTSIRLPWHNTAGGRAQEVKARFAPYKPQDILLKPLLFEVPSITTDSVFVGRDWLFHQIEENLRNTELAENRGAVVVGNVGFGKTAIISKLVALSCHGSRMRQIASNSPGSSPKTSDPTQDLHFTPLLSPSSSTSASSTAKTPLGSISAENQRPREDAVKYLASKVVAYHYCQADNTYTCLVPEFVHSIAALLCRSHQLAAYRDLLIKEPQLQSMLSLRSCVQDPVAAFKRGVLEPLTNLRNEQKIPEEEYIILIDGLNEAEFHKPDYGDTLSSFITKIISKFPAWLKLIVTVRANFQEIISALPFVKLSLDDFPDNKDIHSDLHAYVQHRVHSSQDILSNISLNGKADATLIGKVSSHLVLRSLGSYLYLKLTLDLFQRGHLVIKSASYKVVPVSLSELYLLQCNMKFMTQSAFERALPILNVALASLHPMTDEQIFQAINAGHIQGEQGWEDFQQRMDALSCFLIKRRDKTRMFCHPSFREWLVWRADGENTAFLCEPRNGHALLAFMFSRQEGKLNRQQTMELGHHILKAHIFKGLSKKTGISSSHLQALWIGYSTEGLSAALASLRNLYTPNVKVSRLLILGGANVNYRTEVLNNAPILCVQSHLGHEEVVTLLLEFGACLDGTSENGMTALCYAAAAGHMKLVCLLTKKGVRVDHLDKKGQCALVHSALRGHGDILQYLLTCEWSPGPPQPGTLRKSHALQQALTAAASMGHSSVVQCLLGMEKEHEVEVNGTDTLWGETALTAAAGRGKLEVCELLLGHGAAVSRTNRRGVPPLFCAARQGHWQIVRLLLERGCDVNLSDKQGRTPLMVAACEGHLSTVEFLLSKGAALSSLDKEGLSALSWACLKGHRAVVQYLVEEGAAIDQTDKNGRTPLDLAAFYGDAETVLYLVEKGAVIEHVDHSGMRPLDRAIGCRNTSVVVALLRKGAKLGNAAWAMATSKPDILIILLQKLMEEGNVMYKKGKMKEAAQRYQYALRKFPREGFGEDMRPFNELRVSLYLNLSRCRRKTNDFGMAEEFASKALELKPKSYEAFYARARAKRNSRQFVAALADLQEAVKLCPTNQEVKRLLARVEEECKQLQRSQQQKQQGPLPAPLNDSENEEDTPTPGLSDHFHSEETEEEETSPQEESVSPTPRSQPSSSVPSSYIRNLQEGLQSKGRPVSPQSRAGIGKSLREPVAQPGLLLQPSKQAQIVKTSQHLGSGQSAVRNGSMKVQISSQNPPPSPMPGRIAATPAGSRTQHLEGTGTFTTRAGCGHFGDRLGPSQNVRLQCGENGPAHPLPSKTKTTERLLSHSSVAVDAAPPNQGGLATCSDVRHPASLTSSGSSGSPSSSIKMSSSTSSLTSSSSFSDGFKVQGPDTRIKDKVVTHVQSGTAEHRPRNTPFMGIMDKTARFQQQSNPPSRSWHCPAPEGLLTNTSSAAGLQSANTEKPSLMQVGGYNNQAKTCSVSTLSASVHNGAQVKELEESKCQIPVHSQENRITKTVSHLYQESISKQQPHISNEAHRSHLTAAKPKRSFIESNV

Regarding `C=CC(=O)N1C[C@H](c2ccc(Br)cc2)[C@@H]1C(=O)Nc1cccc2cccnc12` [MY-1B, (2R,3S)-1-acryloyl-3-(4-bromophenyl)-N-(quinolin-8-yl)azetidine-2-carboxamide], in assay [1], the “% engagement BCKDK_C111” value is listed as 14.5%. In addition, the “% engagement DCTN4_C258” value in assay [2] is recorded as 68%. Also, the “% engagement EPHX4_C287” value in assay [3] amounted to 44.5%. In addition, the “% engagement KRTCAP3_C197” value in assay [4] is recorded as 69.5%. In addition, in assay [5], the “% engagement SLC25A16_C311” value worked out at 37.5%. In assay [6], the “% engagement TANC1_C800” value is 3%.
`C=CC(=O)N1C[C@H](c2ccc(Br)cc2)[C@H]1C(=O)Nc1cccc2cccnc12` [MY-3B, (2S,3S)-1-acryloyl-3-(4-bromophenyl)-N-(quinolin-8-yl)azetidine-2-carboxamide]: the “% engagement BCKDK_C111” value in assay [1] was found to be 76.75%. In assay [2], the “% engagement DCTN4_C258” value came out at 31.5%. Moreover, the “% engagement EPHX4_C287” value in assay [3] was found to be 86.5%. Besides, in assay [4], the “% engagement KRTCAP3_C197” value is 54%. For the same molecule, in assay [5], the “% engagement SLC25A16_C311” value was found to be 38.5%. Also, the “% engagement TANC1_C800” value in assay [6] is 83.5%.
For `C=CC(=O)N1C[C@H](c2ccc(Br)cc2)[C@H]1C(=O)Nc1cccc2cccnc12` [MY-3A, (2S,3S)-1-acryloyl-3-(4-bromophenyl)-N-(quinolin-8-yl)azetidine-2-carboxamide], the “% engagement BCKDK_C111” value in assay [1] was found to be 19.5%. Besides, the “% engagement DCTN4_C258” value in assay [2] was 15.5%. For the same molecule, the “% engagement EPHX4_C287” value in assay [3] is listed as 28%. The “% engagement KRTCAP3_C197” value in assay [4] amounted to 31%. The “% engagement SLC25A16_C311” value in assay [5] turned out to be 32%. Also, the “% engagement TANC1_C800” value in assay [6] came out at 12.5%.
For `C=CC(=O)N1C[C@@H](c2ccc(Br)cc2)[C@H]1C(=O)Nc1cccc2cccnc12` [MY-1A, (2S,3R)-1-acryloyl-3-(4-bromophenyl)-N-(quinolin-8-yl)azetidine-2-carboxamide], in assay [1], the “% engagement BCKDK_C111” value worked out at 17.25%. In addition, the “% engagement DCTN4_C258” value in assay [2] turned out to be 27.5%. In addition, in assay [3], the “% engagement EPHX4_C287” value was 23.5%. For the same molecule, in assay [4], the “% engagement KRTCAP3_C197” value came out at 61%. Moreover, the “% engagement SLC25A16_C311” value in assay [5] is on record as 79%. Besides, the “% engagement TANC1_C800” value in assay [6] was −2%.
